Assay results taken from patent US6458767B1, “Use of peptides inhibitory for thrombospondin dependent TGF-β activation in the treatment of kidney disease” (The UAB Research Foundation, priority 1994, dated 2002).

What was measured:
TSP1 null mice = settings: literature; cited from earlier work
[1] = tested on: activation of TGF-β by TSP1; settings: background, literature; cited from earlier work
[2] = tested on: rats with anti-Thy1 disease; test: Glomerular immunostaining score for TGF-β1, TGF-β2, TGF-βRI, TGF-βRII and TSP1 in the anti-Thy1 model; assay type: in vivo, rat
From the text: (§1) Experimental design. Experimental mesangial proliferative glomerulonephritis was induced using the monoclonal mouse anti-Thy1 antibody OX-7. Peptides were continuously infused intravenously (i.v.) via jugular vein using osmotic minipumps starting sixteen hours after disease induction. The effects of the hexapeptide AAWSHW (SEQ ID NO:22) (that interferes with the TSP1-mature TGF-β interaction) or the LSKL-peptide (SEQ ID NO:21) (that blocks the TSP1-LAP interaction) were compared to a control peptide (SLLK) in the anti-Thy1 model. Tissues from different time points (days three, five, eight) of this experiment were analyzed in regard to mesangiolysis, macrophage-influx, MC-proliferation, MC-activation, microaneurysm and matrix formation, GEN proliferation, TSP1, TGF-β1 and 2, as well as TGF-βRI and RII. Functional parameters such as blood pressure, proteinuria, and creatinine clearance were also determined. On day eight, glomerular secretion of active TGF-β was determined in individual animals by incubating isolated glomeruli for twenty-four hours in DMEM and measuring TGF-β activity in glomerular supernatants using the NRK-bioassay.
(§2) Animal model Experimental mesangial proliferative glomerulonephritis (anti-Thy1 model) was induced in Sprague Dawley rats (180-200 g; Charles River, Sulzfeld, Germany) by a single injection of 1 mg/kg of the mouse monoclonal anti-Thy1 antibody OX-7 (European Collection of Animal Cell Culture, Salisbury, England). In this animal model, complete anti-Thy1 antibody binding occurs within an hour (Johnson et al. (1991) Am. J. Pathol. 138 (2), 313-21). To avoid potential interference of the LAP-peptides with anti-Thy1 antibody binding and subsequent mesangiolysis, the peptide treatment was started sixteen hours after disease induction, when binding of the anti-Thy1 antibody to the mesangium and subsequent mesangiolysis had already occurred. The peptides used in this study were synthesized, purified, and analyzed as described elsewhere (Crawford et al. (1998) Cell 93, 1159-1170).
(§3) Renal biopsies as described previously (Hugo et al. (1997) J. Clin. Invest. 100, 786-794) were performed on days three and five, and the experiment was finished on day eight. To determine DNA incorporation into proliferating cells, each animal was injected intravenously with BrdU (50 mg/kg bw) ninety minutes before the second survival biopsy was taken on day five (peak of MC proliferation). Renal biopsies were fixed in methyl Carnoy's, 10% formalin and/or OCT and snap frozen. A twenty-four hour urine collection for measurement of protein and creatinine was done from day seven to eight, when maximal proteinuria occurs in this model (unpublished observation). Blood pressure measurements were done twice before and twice after disease induction. In renal biopsies, the frequency of glomerular microaneurysms, the number of infiltrating macrophages, the number of proliferating MC, the expression of the contractile protein α-sm actin as a marker of MC-activation, and the expression of TGF-β1, TGF-β2, TGF-βRI, TGF-βRII, TSP1, as well as of extracellular matrix proteins such as collagen I, collagen IV and fibronectin were determined. For TGF-β activity measurements in individual animals on day eight, glomeruli were isolated by differential sieving (Johnson et al. (1991) Am. J. Pathol. 138 (2), 313-21) and counted using five aliquots. Glomerular isolates were discarded if purity was less than 95%. 8000 glomeruli/ml were incubated in DMEM at 37° C. After a twenty-four hour incubation period, glomerular supernatants were stored by −70° C. until TGF-β activity measurements were done.
(§4) Peptide infusion. All peptides (at a concentration of 3.5 mg/ml) were continuously infused for seven days via a catheter in the right jugular vein using osmotic minipumps (Alzet Corp./Charles River, Sulzfeld, Germany). […]

[3] = tested on: rats with anti-Thy1 disease; test: Glomerular extracellular matrix formation (Masson's Trichrome, collagen I, collagen IV, fibronectin stains) in the anti-Thy1 model; assay type: in vivo, rat
From the text: as §1, §2, §3, §4

[4] = tested on: rats with anti-Thy1 disease; test: Functional parameters (proteinuria, creatinine clearance, blood urea nitrogen, systolic blood pressure) in the anti-Thy1 model; assay type: in vivo, rat
From the text: as §1, §2, §3, §4

TGF-β = test: Glomerular secretion of active TGF-β (NRK-bioassay of supernatants of isolated glomeruli) in anti-Thy1 rats; assay type: in vivo, rat
From the text: as §1, §2
as §3, with “After a twenty-four hour incubation period, glomerular supernatants were stored by −70° C. until TGF-β activity measurements were done.” left out

[5] = tested on: rats with anti-Thy1 disease; test: Mesangiolysis, microaneurysm formation and GEN-proliferation in the anti-Thy1 model; assay type: in vivo, rat
From the text: as §1, §2, §3, §4

[6] = tested on: rats with anti-Thy1 disease; test: Glomerular MC-proliferation, MC-activation and macrophage influx in the anti-Thy1 model; assay type: in vivo, rat
From the text: as §1, §2, §3, §4

KRFK: TGF-β activating peptide, KRFK amino acid sequence of the TSP1 molecule (listed as Homo sapiens)
histological changes in TSP1 null mice (TSP1 null mice): reverted toward wild type

Leu-Ser-Lys-Leu (LSKL; listed as Homo sapiens)
block of activation of TGF-β by TSP1 [1]: able to block activation of TGF-β by TSP1 | TGF-β1 (score 0-4) ([2]; day 3): 0.1 ± 0.1 score 0-4 | TGF-β2 (score 0-4) ([2]; day 3): 0.2 ± 0.1 score 0-4 | TGF-βRI (score 0-4) ([2]; day 3): 0.2 ± 0.2 score 0-4 | TGF-βRII (score 0-4) ([2]; day 3): 0.2 ± 0.1 score 0-4 | TSP I (score 0-4) ([2]; day 3): 0.3 ± 0.2 score 0-4 | TGF-β1 (score 0-4) ([2]; day 5): 1.8 ± 0.6 score 0-4 | TGF-β2 (score 0-4) ([2]; day 5): 1.2 ± 0.6 score 0-4 | TGF-βRI (score 0-4) ([2]; day 5): 1.4 ± 0.3 score 0-4 | TGF-βRII (score 0-4) ([2]; day 5): 1.3 ± 0.3 score 0-4 | TSP I (score 0-4) ([2]; day 5): 1.4 ± 0.6 score 0-4 | TGF-β1 (score 0-4) ([2]; day 8): 1.7 ± 0.6 score 0-4 | TGF-β2 (score 0-4) ([2]; day 8): 0.6 ± 0.6 score 0-4 | TGF-βRI (score 0-4) ([2]; day 8): 1.4 ± 0.4 score 0-4 | TGF-βRII (score 0-4) ([2]; day 8): 0.9 ± 0.6 score 0-4 | TSP I (score 0-4) ([2]; day 8): 0.5 ± 0.3 score 0-4 | Matrix Collagen 1 (score 0-4) ([3]; day 3): 0.1 ± 0.1 score 0-4 | Matrix Collagen IV (score 0-4) ([3]; day 3): 1.0 ± 0.2 score 0-4 | Matrix Fibronectin (score 0-4) ([3]; day 3): 1.2 ± 0.4 score 0-4 | Matrix Trichrome (score 0-3) ([3]; day 3): 0.4 ± 0.2 score 0-3 | Matrix Collagen 1 (score 0-4) ([3]; day 5): 0.7 ± 0.4 score 0-4 | Matrix Collagen IV (score 0-4) ([3]; day 5): 1.9 ± 0.3 score 0-4 | Matrix Fibronectin (score 0-4) ([3]; day 5): 1.9 ± 0.6 score 0-4 | Matrix Trichrome (score 0-3) ([3]; day 5): 0.7 ± 0.2 score 0-3 | Matrix Collagen 1 (score 0-4) ([3]; day 8): 0.8 ± 0.5 score 0-4 | Matrix Collagen IV (score 0-4) ([3]; day 8): 1.2 ± 0.4 score 0-4 | Matrix Fibronectin (score 0-4) ([3]; day 8): 0.9 ± 0.6 score 0-4 | Matrix Trichrome (score 0-3) ([3]; day 8): 1.2 ± 0.3 score 0-3 | extracellular matrix formation as determined by Trichrome staining ([3]; day eight, in words): markedly suppressed | glomerular accumulation of collagen I, collagen IV and fibronectin by immunohistochemistry ([3]; time course of anti-Thy1 disease, in words): reduced glomerular accumulation of all three extracellular matrix proteins | Proteinuria (mg/24 hours) ([4]; day 8 (urine collection day seven to eight)): 24 ± 20 mg/24 hours | twenty-four hour proteinuria ([4]; days seven to eight): 24±20 mg/twenty-four hours | Blood urea nitrogen ([4]; rat, in vivo): 33.2 ± 9.4 mg/dL | Active TGF-β (colonies > 62 um) (TGF-β; day 8 glomeruli, 24 h supernatant, NRK-bioassay, continuous i.v. peptide infusion): 154 ± 50 colonies > 62 um | glomerular secretion of active TGF-β compared to control peptide (SLLK) treated rats (TGF-β; day eight glomeruli, p<0.01): markedly reduced | Glomerular Microaneurysm (in percent) ([5]; day 3): 16.7 ± 10.0% | Glomerular Microaneurysm (in percent) ([5]; day 5): 13.8 ± 19.9% | Glomerular Microaneurysm (in percent) ([5]; day 8): 2.2 ± 2.7% | Glomerular GEN-proliferation (double staining for RECA-1 and PCNA) ([5]; day three): 2.0±0.5 | mesangiolysis scores ([5]; day three, scale 0-IV): 2.56±0.3 | MC-activation α-sm actin (score 0-4) ([6]; day 3): 0.6 ± 0.3 score 0-4 | MC-proliferation (OX-7 + /PCNA + cells/glomerulus) ([6]; day 3): 3.3 ± 0.6 cells/glomerulus | Macrophages (ED-1 + cells/glomerulus) ([6]; day 3): 4.3 ± 2.0 cells/glomerulus | MC-activation α-sm actin (score 0-4) ([6]; day 5): 2.5 ± 0.4 score 0-4 | MC-proliferation (OX-7 + /BrdU + cells/glomerulus) ([6]; day 5): 3.9 ± 0.6 cells/glomerulus | MC-proliferation (OX-7 + /PCNA + cells/glomerulus) ([6]; day 5): 7.9 ± 1.0 cells/glomerulus | Macrophages (ED-1 + cells/glomerulus) ([6]; day 5): 1.0 ± 0.6 cells/glomerulus | MC-activation α-sm actin (score 0-4) ([6]; day 8): 2.4 ± 0.5 score 0-4 | MC-proliferation (OX-7 + /PCNA + cells/glomerulus) ([6]; day 8): 4.6 ± 0.5 cells/glomerulus | Macrophages (ED-1 + cells/glomerulus) ([6]; day 8): 0.7 ± 0.5 cells/glomerulus | MC activation (de novo expression of α-sm-actin) ([6]; in words): did not significantly alter
